One data set deals with CYP2D6 (Homo sapiens, UniProt P10635). The note with it: microsomes, 10 µM. The protocol:
Cytochrome 450 (CYP) enzyme inhibition was evaluated using pooled human liver microsomes (Corning, #452117). […] Substrates and corresponding metabolites for each CYP isoform were as follows: phenacetin and acetaminophen for CYP1A2 (Sigma Aldrich, #77440 and A7085, respectively), diclofenac and 4'-hydroxydiclofenac for CYP2C9 (Sigma Aldrich, D6899; TRC, H825225), S-mephenytoin and 4'-hydroxymephenytoin for CYP2C19 (Sigma Aldrich, UC175; Santacruz, sc210197), dextromethorphan and dextrorphan for CYP2D6 (Sigma Aldrich, #81091 and UC205), and midazolam and 1'-hydroxymidazolam for CYP3A4 (KFDA; Sigma Aldrich, UC430).
Samples were preincubated at 37 °C for 5 min, and the reaction was initiated by the addition of the NADPH regeneration system, followed by incubation at 37 °C for 15 min. The reaction was terminated by adding acetonitrile containing the internal standard, and centrifuged at 15,000 rpm for 5 min at 4 °C. The supernatant was analyzed by LC–MS/MS using a Nexera XR system (Shimadzu, Japan) coupled with a TSQ Vantage mass spectrometer (Thermo, USA). […] Metabolites were quantified in multiple reaction monitoring (MRM) mode with Xcalibur software (version 4.4).
All experiments were performed in duplicate with variability ≤ 15%. The percent activity of each CYP enzyme was calculated based on metabolite formation relative to the no-inhibitor control.

For a further data set, the system named is plasma protein. Nature of the data set: Plasma protein binding, Rapid Equilibrium Dialysis (RED). The class given is in vitro ADME, rat. The note with it: 10 μM, 37 °C, 4 h. The protocol:
The plasma protein binding of LJ-4378 was evaluated using the Rapid Equilibrium Dialysis (RED) method with 100% plasma from human (Biochemed, BC22089NCP), rat (Innovative, IRT-N), and mouse (Biochemed, 029-APSC-MP), all treated with sodium citrate as an anticoagulant. The RED device (ThermoFisher Scientific, #89809) and reusable base plate (ThermoFisher Scientific, #89811) were used with an 8 K MWCO membrane. Test compounds were added to plasma at a final concentration of 10 μM and dialyzed against phosphate-buffered saline (PBS, pH 7.4; Hyclone, #SH30256.01) at 37 °C for 4 h. After incubation, equal volumes of plasma and PBS samples were mixed with blank PBS and blank plasma, respectively, followed by the addition of acetonitrile containing chlorpropamide (TRC, C424800) as the internal standard. […] All measurements were performed in duplicate with a deviation of less than 15% between replicates. The free fraction (% Free) was calculated as (concentration in buffer chamber/concentration in plasma chamber) × 100, and the bound fraction (% Bound) was obtained by subtracting % Free from 100. In cases where measurements were unstable, deviations greater than 15% were allowed.

CYP2D6, sequence (P10635 whole entry, canonical isoform): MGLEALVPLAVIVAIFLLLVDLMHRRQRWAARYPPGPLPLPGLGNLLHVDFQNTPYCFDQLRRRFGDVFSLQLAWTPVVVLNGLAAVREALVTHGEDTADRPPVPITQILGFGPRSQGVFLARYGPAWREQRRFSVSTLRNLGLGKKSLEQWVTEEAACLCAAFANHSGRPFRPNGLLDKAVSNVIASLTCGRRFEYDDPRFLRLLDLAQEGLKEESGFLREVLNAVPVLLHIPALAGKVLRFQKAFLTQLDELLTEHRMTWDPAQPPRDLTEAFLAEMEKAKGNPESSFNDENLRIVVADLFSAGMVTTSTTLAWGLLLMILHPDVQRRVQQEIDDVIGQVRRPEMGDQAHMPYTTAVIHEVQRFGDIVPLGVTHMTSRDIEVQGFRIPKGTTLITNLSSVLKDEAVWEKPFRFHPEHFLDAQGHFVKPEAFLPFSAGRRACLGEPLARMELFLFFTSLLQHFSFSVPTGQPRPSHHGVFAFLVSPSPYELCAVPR

As to `CCCCC#Cc1nc(N)c2ncn([C@@H]3SC[C@@H](O)[C@H]3O)c2n1` [LJ-4378], the “% of control activity CYP2D6” value at CYP2D6 turned out to be 89.3%. The “Plasma free fraction (% Free), Rat” value in the data set on plasma protein came to 29.7%.

(Values after publication PMC12680861, “Comparative analysis of LJ-4378 and tirzepatide in mouse models of obesity and weight regain” (Archives of Pharmacal Research, 2025).)
